Measured values published in US10858335B2 (Rigel Pharmaceuticals, Inc., priority 2014, dated 2020).

These compounds were tested on GDF8 signaling (p-SMAD-3 (Ser423/425)) (assay: AlphaScreen SureFire SMAD3 (p-Ser423/425) assay, GDF8-stimulated cells (GDF pSMAD)). Conditions: MPC11; GDF8-stimulated; p-SMAD3 AlphaScreen; read-out: GDF pSMAD (MPC11) (inhibition of GDF8 signaling).
Type: cell-based

Row | SMILES | IC50
1 | Cc1cc(-c2ncccc2-c2ccn3ncc(C(=O)NC4CC5CCC(C4)N5C)c3c2)ccc1F (stereo not drawn) [compound 716, endo-5-(2-(4-Fluoro-3-methylphenyl)pyridin-3-yl)-N-(8-methyl-8-azabicyclo[3.2.1]octan-3-yl)pyrazolo[1,5-a]pyridine-3-carboxamide] | 5.03 µM

Same assay, conditions: Mus musculus, MPC-11, GDF8-stimulated pSMAD3, MPC11; tested as the salt form given; read-out: GDF pSMAD (MPC11) (μM), inhibition of GDF8 signaling

Row | IC50 | SMILES
2 | 7.43 µM | Cc1cc(F)c(O)cc1-c1ncccc1-c1ccc2ncnc(N)c2c1 [compound 1019]

Same assay, conditions: Mus musculus, MPC-11, MPC11; GDF8-stimulated; p-SMAD3 AlphaScreen; read-out: GDF pSMAD (MPC11) (inhibition of GDF8 signaling)

Row | IC50 | SMILES
3 | 7.58 µM | Cc1ccc(F)cc1-c1ncccc1-c1ccc2ncnc(N)c2c1 [compound 466, 6-(2-(5-Fluoro-2-methylphenyl)pyridin-3-yl)quinazolin-4-amine]
4 | 4.05 µM | Cc1cc(-c2ncccc2-c2ccc3ncc(=O)n(C)c3c2)ccc1F [compound 888, 7-(2-(4-Fluoro-3-methylphenyl)pyridin-3-yl)-1-methylquinoxalin-2(1H)-one]
5 | 1.21 µM | COc1cc(NC(=O)c2cnc3ccc(-c4cccnc4-c4ccc(F)c(C)c4)cn23)cc(OC)c1OC [compound 573, 6-(2-(4-Fluoro-3-methylphenyl)pyridin-3-yl)-N-(3,4,5-trimethoxyphenyl)imidazo[1,2-a]pyridine-3-carboxamide]
6 | 3.47 µM | Nc1cccc(-c2ncccc2-c2ccc3[nH]ncc3c2)c1 [Compound 75, 5-(2-(3-Aminophenyl)pyridin-3-yl)-1H-indazole]
7 | 9.41 µM | CCN(CC)c1ncnc2ccc(-c3cccnc3-c3ccc(F)c(C)c3)cc12 [compound 397, N,N-Diethyl-6-(2-(4-fluoro-3-methylphenyl)pyridin-3-yl)quinazolin-4-amine]
8 | 22.8 µM | Fc1ccc(-c2ncccc2-c2cnc3cn[nH]c3c2)cc1F [Compound 137, 6-(2-(3,4-Difluorophenyl)pyridin-3-yl)-1H-pyrazolo[4,3-b]pyridine]
9 | 0.621 µM | NC(=O)c1cnc2ccc(-c3cccnc3-c3ccc(F)c(C4CC4)c3)cn12 [compound 224, 6-(2-(3-Cyclopropyl-4-fluorophenyl)pyridin-3-yl)imidazo[1,2-a]pyridine-3-carboxamide]
10 | 0.207 µM | Fc1ccc(-c2ncccc2-c2ccc3ncc(-c4cc[nH]n4)n3c2)cc1Cl [compound 852, 6-(2-(3-Chloro-4-fluorophenyl)pyridin-3-yl)-3-(1H-pyrazol-3-yl)imidazo[1,2-a]pyridine]
11 | 5.54 µM | Cc1cc(-c2nc3c(cc2-c2ccc4ncccc4c2)NC(=O)CO3)ccc1F [compound 293, 6-(4-Fluoro-3-methylphenyl)-7-(quinolin-6-yl)-1H-pyrido[2,3-b] [1,4]oxazin-2(3H)-one]
12 | 6.47 µM | Fc1cc(F)c(-c2ncccc2-c2ccn3ncnc3c2)cc1F [compound 874, 7-(2-(2,4,5-Trifluorophenyl)pyridin-3-yl)-[1,2,4]triazolo[1,5-a]pyridine]
13 | 0.608 µM | Cc1cnc(-c2cc(Cl)c(F)cc2F)c(-c2ccn3ncnc3c2)c1 [compound 865, 7-(2-(5-Chloro-2,4-difluorophenyl)-5-methylpyridin-3-yl)-[l 1,2,4]triazolo[1,5-a]pyridine]
14 | 0.408 µM | Cc1cc(-c2ncccc2-c2ccc3ncc(C(=O)NCCCN4CCCC4=O)n3c2)ccc1F [compound 612, 6-(2-(4-Fluoro-3-methylphenyl)pyridin-3-yl)-N-(3-(2-oxopyrrolidin-1-yl)propyl)imidazo[1,2-a]pyridine-3-carboxamide]
15 | 19.7 µM | Cc1cccc(-c2ncccc2-c2ccc3ncn(CCN4CCOCC4)c3c2)c1 [Compound 36, 1-(2-Morpholinoethyl)-6-(2-m-tolylpyridin-3-yl)-1H-benzo[d]imidazole]
16 | 5.7 µM | Fc1ccc(-c2ncccc2-c2ccc3[nH]ncc3c2)c(F)c1 [Compound 70, 5-[2-(2,4-Difluorophenyl)pyridin-3-yl]-1H-indazole]
17 | 12 µM | COc1cccc(-c2ncc3cc(-c4cccnc4-c4ccc(F)c(C)c4)ccn23)c1 [compound 286, 7-(2-(4-Fluoro-3-methylphenyl)pyridin-3-yl)-3-(3-methoxyphenyl)imidazo[1,5-a]pyridine]
18 | 0.863 µM | Cc1cc(-c2ncc(NCc3ccc(CN4CCOCC4)cc3)cc2-c2ccc3ncsc3c2)ccc1F [compound 358, 5-(Benzo[d]thiazol-6-yl)-6-(4-fluoro-3-methylphenyl)-N-(4-(morpholinomethyl)benzyl)pyridin-3-amine]
19 | 1.83 µM | Clc1ccc(Cl)c(-c2ncccc2-c2ccc3nc[nH]c3c2)c1 [compound 871, 6-(2-(2,5-Dichlorophenyl)pyridin-3-yl)-1H-benzo[d]imidazole]
20 | 0.461 µM | COc1ccc(CNc2cnc(-c3ccc(F)c(C)c3)c(-c3ccc4ncsc4c3)c2)cn1 [compound 324, 5-(Benzo[d]thiazol-6-yl)-6-(4-fluoro-3-methylphenyl)-N-((6-methoxypyridin-3-yl)methyl)pyridin-3-amine]
21 | 0.129 µM | Nc1ncnc2ccc(-c3cccnc3-c3cc(F)cc(Cl)c3)cc12 [compound 460, 6-(2-(3-Chloro-5-fluorophenyl)pyridin-3-yl)quinazolin-4-amine]
22 | 0.137 µM | Cc1cc(-c2ncccc2-c2ccc3ncc(C)n3c2)ccc1F [compound 527, 6-(2-(4-Fluoro-3-methylphenyl)pyridin-3-yl)-3-methylimidazo[1,2-a]pyridine]

Row | IC50 | SMILES
23 | 0.26 µM | Cc1ccc(F)c(-c2ncccc2-c2ccn3ncnc3c2)c1 [compound 737, 7-(2-(2-Fluoro-5-methylphenyl)pyridin-3-yl)-[1,2,4]triazolo[1,5-a]pyridine]
24 | 0.516 µM | N#Cc1cnc2ccc(-c3cccnc3-c3ccc(F)c(Cl)c3)cn12 [compound 689, 6-(2-(3-Chloro-4-fluorophenyl)pyridin-3-yl)imidazo[1,2-a]pyridine-3-carbonitrile]
25 | 0.258 µM | Cc1cccc(-c2ncccc2-c2ccn3ncnc3c2)c1 [compound 732, 7-(2-(m-Tolyl)pyridin-3-yl)-[1,2,4]triazolo[1,5-a]pyridine]
26 | 5.66 µM | Cc1cccc(-c2ncccc2-c2ccc3nncn3c2)c1 [Compound 162, 6-(2-m-Tolylpyridin-3-yl)-[1,2,4]triazolo[4,3-a]pyridine]
27 | 0.198 µM | Fc1ccc(-c2ncccc2-c2ccc3[nH]ncc3c2)cc1C1CC1 [compound 211, 5-(2-(3-Cyclopropyl-4-fluorophenyl)pyridin-3-yl)-1H-indazole]
28 | 0.761 µM | COc1cccc(-c2ncccc2-c2ccc3ncnn3c2)c1 [compound 779, 6-(2-(3-Methoxyphenyl)pyridin-3-yl)-[1,2,4]triazolo[1,5-a]pyridine]
29 | 6.77 µM | Cc1cc(-c2ncc(NC(=O)N3CCOCC3)cc2-c2ccc3nccn3c2)ccc1F [compound 219, N-(6-(4-Fluoro-3-methylphenyl)-5-(imidazo[1,2-a]pyridin-6-yl)pyridin-3-yl)morpholine-4-carboxamide]
30 | 0.737 µM | Fc1ccc(-c2ncccc2-c2ccc3ncccc3n2)cc1C1CC1 [compound 216, 2-(2-(3-cyclopropyl-4-fluorophenyl)pyridin-3-yl)-1,5-naphthyridine]
31 | 0.737 µM | Cc1cc(-c2ncc(NCc3ccc(O)c(OC(F)(F)F)c3)cc2-c2ccc3ncsc3c2)ccc1F [compound 371, 4-(((5-(Benzo[d]thiazol-6-yl)-6-(4-fluoro-3-methylphenyl)pyridin-3-yl)amino)methyl)-2-(trifluoromethoxy)phenol]
32 | 0.307 µM | COc1ccc(CNc2cnc(-c3ccc(F)c(C)c3)c(-c3ccc4ncsc4c3)c2)cc1OCC(N)=O [compound 352, 2-(5-(((5-(Benzo[d]thiazol-6-yl)-6-(4-fluoro-3-methylphenyl)pyridin-3-yl)amino)methyl)-2-methoxyphenoxy)acetamide]
33 | 3.37 µM | Fc1ccc(-c2ncccc2-c2ccc3ncnc(C4CC4)c3c2)cc1Cl [compound 507, 6-(2-(3-Chloro-4-fluorophenyl)pyridin-3-yl)-4-cyclopropylquinazoline]
34 | 6.87 µM | N#Cc1cnc2ccc(-c3cccnc3-c3ccccc3F)cn12 [compound 623, 6-(2-(2-Fluorophenyl)pyridin-3-yl)imidazo[1,2-a]pyridine-3-carbonitrile]
35 | 0.0681 µM | [2H]C([2H])([2H])c1cccc(-c2ncccc2-c2ccn3nccc3n2)c1 [compound 602, 5-(2-(3-(Methyl-d3)phenyl)pyridin-3-yl)pyrazolo[1,5-a]pyrimidine]
36 | 3.63 µM | N#Cc1cnc2ccc(-c3cccnc3-c3ccc(F)c(F)c3)cn12 [compound 622, 6-(2-(3,4-Difluorophenyl)pyridin-3-yl)imidazo[1,2-a]pyridine-3-carbonitrile]
37 | 0.926 µM | Nc1ncnc2ccc(-c3cccnc3-c3cc(F)ccc3F)cc12 [compound 454, 6-(2-(2,5-Difluorophenyl)pyridin-3-yl)quinazolin-4-amine]
38 | 0.276 µM | COc1ncnc2ccc(-c3cccnc3-c3cccc(C)c3)cc12 [compound 376, 4-Methoxy-6-(2-(m-tolyl)pyridin-3-yl)quinazoline]
39 | 0.398 µM | Cc1cc(-c2ncccc2-c2ccc3ncnc(Oc4ccc5ncccc5c4)c3c2)ccc1F [compound 446, 6-(2-(4-Fluoro-3-methylphenyl)pyridin-3-yl)-4-(quinolin-6-yloxy)quinazoline]
40 | 0.421 µM | Fc1cc(F)c(-c2ncccc2-c2ccc3ncnn3n2)cc1Cl [compound 956, 6-(2-(5-Chloro-2,4-difluorophenyl)pyridin-3-yl)-[l 1,2,4]triazolo[1,5-b]pyridazine]
41 | 8.46 µM | Cc1cc(-c2ncccc2-c2ccc3ncc(C(=O)N4CCOCC4)n3c2)ccc1F [compound 580, (6-(2-(4-Fluoro-3-methylphenyl)pyridin-3-yl)imidazo[1,2-a]pyridin-3-yl)(morpholino)methanone]

Row | SMILES | IC50
42 | Cc1cc(-c2ncccc2-c2ccn3ncc(C(=O)N[C@@H]4CN5CCC4CC5)c3c2)ccc1F [compound 792, (S)-5-(2-(4-Fluoro-3-methylphenyl)pyridin-3-yl)-N-(quinuclidin-3-yl)pyrazolo[1,5-a]pyridine-3-carboxamide] | 2.43 µM
